We go through 33 molecules from patent publication US9656971B2, “COMT inhibitors” (Hoffmann-La Roche Inc., priority 2012, dated 2017).

Like-named read-outs stand apart in the source and are kept apart here.

The target in this experiment is T1, Rec. human COMT (Homo sapiens, UniProt P21964).
T1 sequence (P21964 1-271): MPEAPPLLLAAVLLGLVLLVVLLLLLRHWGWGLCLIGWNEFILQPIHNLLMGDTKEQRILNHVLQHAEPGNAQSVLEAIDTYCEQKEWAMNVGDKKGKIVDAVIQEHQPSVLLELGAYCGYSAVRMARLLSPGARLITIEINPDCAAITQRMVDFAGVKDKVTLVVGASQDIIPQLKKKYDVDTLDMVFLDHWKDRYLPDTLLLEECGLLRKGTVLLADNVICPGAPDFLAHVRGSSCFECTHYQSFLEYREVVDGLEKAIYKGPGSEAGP
In words: COMT-Fluorescence Assay. The class given is biochemical. The settings on record: rec. human COMT 25 nM, 4-Nitrocatechol-Alexa488 200 nM, SAM 500 nM. The procedure: This intramolecular interaction is disturbed if the 4-Nitrocatechol is methylated. […] This increase of fluorescence intensity can be followed in a kinetic measurement. The slope in the linear range of the kinetic is calculated. An inhibitor compound decreases the slope.
Signal [rfu/min]=(rfu(end-point)−rfu(startpoint))/incubation_time_#2

The mark [1] stands for this setting: COMT-fluorescence assay, read-out: IC50.

In the case of `O=c1[nH]cnc2c(O)cc(-c3ccccc3Oc3ccccc3)cc12` [Example 222, 8-Hydroxy-6-(2-phenoxyphenyl)quinazolin-4(3H)-one], the IC50 under setting [1] was found to be 60 nM.

In the case of `CCOC(=O)c1cc(O)c2nc[nH]c(=O)c2c1` [Example 6, Ethyl 8-hydroxy-4-oxo-3,4-dihydroquinazoline-6-carboxylate], the IC50 under setting [1] was determined as 20 nM.

In the case of `Cc1ccc(C)c2c1C=C(c1cc(O)c3nc[nH]c(=O)c3c1)CC2` [Example 19, 6-(5,8-dimethyl-3,4-dihydro-naphthalen-2-yl)-8-hydroxy-3H-quinazolin-4-one], under setting [1], the IC50 was 80 nM.

Take `O=C(c1ccccc1)c1cc(O)c2nc[nH]c(=O)c2c1` [Example 68, 6-Benzoyl-8-hydroxy-3H-quinazolin-4-one]: the IC50 under setting [1] is 60 nM.

As to `O=c1[nH]cnc2c(O)cc(-c3ccccc3COCCC3CCN(CC(F)(F)F)CC3)cc12` [Example 118, 8-Hydroxy-6-(2-((2-(1-(2,2,2-trifluoroethyl)piperidin-4-yl)ethoxy)methyl)phenyl)quinazolin-4(3H)-one 2,2,2-trifluoroacetate], the IC50 under setting [1] was 10 nM.

`CN(C)CCNC(=O)c1ccc(-c2cc(O)c3nc[nH]c(=O)c3c2)cc1` [Example 173, N-(2-(Dimethylamino)ethyl)-4-(8-hydroxy-4-oxo-3,4-dihydroquinazolin-6-yl)benzamide]: the IC50 under setting [1] amounted to 50 nM. Same read-out and setting: under `Cc1ccc(/C=C/c2cc(O)c3nc[nH]c(=O)c3c2)cc1` [Example 21, (E)-8-Hydroxy-6-(4-methylstyryl)quinazolin-4(3H)-one] stands 100 nM. Consider `CS(=O)(=O)Cc1ccccc1-c1cc(O)c2nc[nH]c(=O)c2c1` [Example 115, 8-Hydroxy-6-(2-(methylsulfonylmethyl)phenyl)quinazolin-4(3H)-one 2,2,2-trifluoroacetate], for which the IC50 (IC50, COMT-fluorescence assay) turned out to be 50 nM. For the molecule `O=c1[nH]cnc2c(O)cc(-c3c(F)c(F)c(F)c(F)c3F)cc12` [Example 33, 8-Hydroxy-6-(perfluorophenyl)quinazolin-4(3H)-one], inhibition (IC50, COMT-fluorescence assay) was half-maximal at 20 nM (IC50).

With `CS(=O)(=O)Cc1ccccc1-c1cc(O)c2nc[nH]c(=O)c2c1Cl` [Example 119, 5-Chloro-8-hydroxy-6-(2-(methylsulfonylmethyl)phenyl)quinazolin-4(3H)-one], under setting [1], the IC50 worked out at 610 nM. On to `O=c1[nH]cnc2c(O)cc(Cc3ccccc3F)cc12` [Example 11, 6-(2-Fluorobenzyl)-8-hydroxyquinazolin-4(3H)-one], for which the IC50 under setting [1] stood at 1250 nM. In the case of `COCc1ccc(C(=O)N2CCN(C)CC2)cc1-c1cc(O)c2nc[nH]c(=O)c2c1` [Example 233, 8-Hydroxy-6-[2-methoxymethyl-5-(4-methyl-piperazine-1-carbonyl)-phenyl]-3H-quinazolin-4-one; compound with formic acid], the IC50 under setting [1] was 1170 nM. The same measure, in the same setting: then `Cn1cncc1-c1cc(O)c2nc[nH]c(=O)c2c1` [Example 79, 8-Hydroxy-6-(1-methyl-1H-imidazol-5-yl)quinazolin-4(3H)-one], with 150 nM; and `COc1ccc(C(C)(C)C)cc1-c1cc(O)c2nc[nH]c(=O)c2c1` [Example 35, 6-(5-tert-Butyl-2-methoxyphenyl)-8-hydroxyquinazolin-4(3H)-one], with 1300 nM; and `O=c1[nH]cnc2c(O)ccc(Cl)c12` [Example 143, 5-Chloro-8-hydroxyquinazolin-4(3H)-one], with 810 nM. Turning to `CN(C)S(=O)(=O)c1ccccc1-c1cc(O)c2nc[nH]c(=O)c2c1` [Example 250, 2-(8-Hydroxy-4-oxo-3,4-dihydro-quinazolin-6-yl)-N,N-dimethyl-benzenesulfonamide], the IC50 under setting [1] stood at 1140 nM. Consider `O=c1[nH]cnc2c(O)cc(C#Cc3ccccc3)cc12` [Example 23, 8-Hydroxy-6-(phenylethynyl)quinazolin-4(3H)-one], for which, under setting [1], the IC50 worked out at 10 nM.

Consider `Cc1ccc(-c2ccc(C(F)(F)F)cc2)c(-c2cc(O)c3nc[nH]c(=O)c3c2)c1` [Example 30, 8-Hydroxy-6-(4-methyl-4′-(trifluoromethyl)biphenyl-2-yl)quinazolin-4(3H)-one], for which the IC50 under setting [1] was 1400 nM. `O=c1[nH]cnc2c(O)cc(-c3ccccc3CCCCN3CCCC3)cc12` [Example 248, 8-Hydroxy-6-(2-(4-(pyrrolidin-1-yl)butyl)phenyl)quinazolin-4(3H)-one]: the IC50 under setting [1] came to 100 nM. Take `O=c1[nH]cnc2c(O)cc(-c3cc(Cl)ccc3Cl)cc12` [Example 37, 6-(2,5-Dichlorophenyl)-8-hydroxyquinazolin-4(3H)-one]: the IC50 (IC50, COMT-fluorescence assay) came out at 30 nM. As to `COCCn1nccc1-c1cc(O)c2nc[nH]c(=O)c2c1` [Example 45, 8-Hydroxy-6-(1-(2-methoxyethyl)-1H-pyrazol-5-yl)quinazolin-4(3H)-one], the IC50 under setting [1] is 30 nM.

On to `CCOC(=O)c1[nH]c(-c2cc(O)c3nc[nH]c(=O)c3c2)nc1C` [Example 80, Ethyl 2-(8-hydroxy-4-oxo-3,4-dihydroquinazolin-6-yl)-4-methyl-1H-imidazole-5-carboxylate], for which the IC50 under setting [1] amounted to 90 nM.

`Cc1ccc(-c2c(-c3ccc(F)cc3)cc(O)c3nc[nH]c(=O)c23)cc1` [Example 50, 6-(4-Fluorophenyl)-8-hydroxy-5-p-tolylquinazolin-4(3H)-one]: the IC50 under setting [1] was found to be 10 nM. In the case of `Cn1nccc1-c1cc(O)c2nc[nH]c(=O)c2c1` [Example 181, 8-Hydroxy-6-(1-methyl-1H-pyrazol-5-yl)quinazolin-4(3H)-one], the IC50 under setting [1] turned out to be 20 nM. The same measure, in the same setting: then `O=c1[nH]cnc2c(O)cc(-c3ccc(F)cc3)c([N+](=O)[O-])c12` [Example 252, 6-(4-Fluoro-phenyl)-8-hydroxy-5-nitro-3H-quinazolin-4-one], with 30 nM; and `CC(C)Cc1cc(O)c2nc[nH]c(=O)c2c1` [Example 17, 8-Hydroxy-6-isobutylquinazolin-4(3H)-one], with 1100 nM; and `CC(C)N(C(=O)c1ccccc1-c1cc(O)c2nc[nH]c(=O)c2c1)C(C)C` [Example 226, 2-(8-Hydroxy-4-oxo-3,4-dihydroquinazolin-6-yl)-N,N-diisopropylbenzamide], with 1030 nM. Turning to `COCc1nc(NC(=O)C(C)(C)C)ccc1-c1cc(O)c2nc[nH]c(=O)c2c1` [Example 104, N-(5-(8-Hydroxy-4-oxo-3,4-dihydroquinazolin-6-yl)-6-(methoxymethyl)pyridin-2-yl)pivalamide], the IC50 under setting [1] was 10 nM.

Consider `Cc1ccc(C(O)c2cc(O)c3nc[nH]c(=O)c3c2)cc1` (stereo not drawn) [Example 65, 8-Hydroxy-6-(hydroxy(p-tolyl)methyl)quinazolin-4(3H)-one], for which the IC50 under setting [1] came out at 4830 nM. Same read-out and setting: then `COc1ccc(C)cc1-c1cc(O)c2nc[nH]c(=O)c2c1` [Example 36, 8-Hydroxy-6-(2-methoxy-5-methylphenyl)quinazolin-4(3H)-one], with 80 nM; and `O=c1[nH]cnc2c(O)cc(CCCc3ccccc3)cc12` [Example 22], with 200 nM; and `O=c1[nH]cnc2c(O)cc(-c3ccc(F)cc3)c(Cl)c12` [Example 101, 5-Chloro-6-(4-fluorophenyl)-8-hydroxyquinazolin-4(3H)-one], with 10 nM.

`CN1CCN(S(=O)(=O)c2cccc(-c3cc(O)c4nc[nH]c(=O)c4c3)c2)CC1` [Example 111, 8-Hydroxy-6-[3-(4-methyl-piperazine-1-sulfonyl)-phenyl]-3#H!-quinazolin-4-one; compound with trifluoro-acetic acid]: the IC50 under setting [1] was determined as 20 nM.

What is called IC50 is the concentration needed to halve the response being measured.
